Assay: Phase I safety and tolerability (DLTs, adverse events, laboratory, ECG)
Assay type: in vivo
Conditions: for dose-limiting toxicity (DLT): one subject; for Any treatment-related adverse event (TRAE) / TRAE: Decreased appetite / TRAE: Diarrhoea / TRAE: Dysgeusia / TRAE: Fatigue / TRAE: Gastrointestinal disorders / TRAE: General disorders and administration site conditions / TRAE: Metabolism and nutrition disorders / TRAE: Nausea / TRAE: Nervous system disorders / TRAE: Vomiting: Definitely related; for Any treatment-emergent adverse event (TEAE) / TEAE: Abdominal distension / TEAE: Abdominal pain / TEAE: Back pain / TEAE: Blood and lymphatic system disorders / TEAE: Chills / TEAE: Constipation / TEAE: Cough / TEAE: Decreased appetite / TEAE: Diarrhoea / TEAE: Dizziness / TEAE: Dysgeusia / TEAE: Dyspnoea / TEAE: Fatigue / TEAE: Gastrointestinal disorders / TEAE: General disorders and administration site conditions / TEAE: Haematuria / TEAE: Headache / TEAE: Infections and infestations / TEAE: Investigations / TEAE: Metabolism and nutrition disorders / TEAE: Musculoskeletal and connective tissue disorders / TEAE: Nausea / TEAE: Nervous system disorders / TEAE: Oedema peripheral / TEAE: Psychiatric disorders / TEAE: Pyrexia / TEAE: Renal and urinary disorders / TEAE: Respiratory, thoracic, and mediastinal disorders / TEAE: Skin and subcutaneous tissue disorders / TEAE: Vomiting / TEAE: Weight decreased: Grade 1
Description: This study employed a standard 3 + 3 dose escalation design with a starting dose of 25 mg QD. […] Dose escalation decisions took into account all available data from evaluable subjects as well as PK and the safety profile of prior dose cohorts. […] There was a minimum 5-day stagger between dosing of the first and second subjects in each dose cohort. Dose escalation decisions were made by a data review committee (DRC) composed of, at minimum, the medical monitor, at least one principal investigator, and a sponsor representative, per the study DRC Plan. Dose escalation could continue until 2 or more subjects in the same dose cohort experienced a dose-limiting toxicity (DLT). DLTs were defined as Grade 3 or 4 adverse drug reactions (ADRs), with grades as defined in the National Cancer Institute Common Toxicity Criteria for Adverse Events (NCI-CTCAE) version 5.0. […] The MTD was defined as the highest dose at which no more than 1 of 6 subjects experienced a DLT during cycle 1 of the study drug. The MTD would have been exceeded if 2 or more subjects in a dose cohort of up to 6 subjects experienced a DLT. Subjects could continue treatment until disease progression, unacceptable toxicity, death, withdrawal of consent, or loss to follow-up.
Before enrolment in the study, all patients received a detailed medical history and physical examination. Clinical laboratory evaluations included clinical chemistry, complete blood count, urinalysis, coagulation factors, and a lipid panel. Other safety assessments included vital signs, physical examination, electrocardiogram, and echocardiogram with multigated acquisition (ECHO/MUGA). Safety assessments were performed on days 1, 8, 15, and 21 of cycle 1, and on day 1 of cycles 2 to 6.

Nc1ncc(-c2cnn(C3CCNCC3)c2)cc1-c1nnc(CC2CC2)o1 [SLC-391, 3-(5-[cyclopropylmethyl]-1,3,4-oxadiazol-2-yl)-5-(1-[piperidin-4-yl]-1H-pyrazol-4-yl)-pyridin-2-amine]
subjects with SAEs (110 mg BID (1/3)): 33.3% | TEAEs leading to drug withdrawal or study discontinuation (150 mg BID): 16.7% | subjects reporting Grade 3 TEAEs (150 mg BID): 50.0% | DLTs and SAEs (150 mg BID (N = 6)): no DLTs or SAEs | subjects reporting constipation (150 mg BID (N = 6)): 66.7% | subjects reporting diarrhoea (150 mg BID (N = 6)): 66.7% | subjects reporting dyspnoea (150 mg BID (N = 6)): 50.0% | subjects reporting fatigue (150 mg BID (N = 6)): 83.3% | subjects reporting nausea (150 mg BID (N = 6)): 83.3% | subjects with SAEs (150 mg QD (3/6)): 50% | subjects with SAEs (175 mg QD (1/2)): 50% | dose-limiting toxicity (DLT) (175 mg QD (N = 2), SUSAR): Grade 3 haematochezia | TEAEs leading to drug withdrawal or study discontinuation (200 mg BID): 66.7% | subjects reporting Grade 3 TEAEs (200 mg BID): 66.7% | subjects reporting constipation (200 mg BID (N = 3)): 66.7% | subjects reporting decreased appetite (200 mg BID (N = 3)): 66.7% | subjects reporting diarrhoea (200 mg BID (N = 3)): 66.7% | subjects reporting dysgeusia (200 mg BID (N = 3)): 66.7% | subjects reporting fatigue (200 mg BID (N = 3)): 66.7% | subjects reporting headache (200 mg BID (N = 3)): 66.7% | subjects reporting nausea (200 mg BID (N = 3)): 100.0% | dose-limiting toxicity (DLT) (200 mg BID): Grade 3 thrombocytopenia associated with Grade 1 haematuria | subjects with interrupted dosing who continued at a reduced dose (2/9 subjects): 22.2% | maximum tolerated dose (MTD) (25-175 mg QD, 75-200 mg BID, 21-day cycles): not reached | SAEs, subjects (BID cohorts): 6.7% | TEAEs leading to treatment interruption or missed dose (BID cohorts): 40.0% | TEAEs leading to treatment or study discontinuation, subjects (BID cohorts): 20.0% | subjects with Grade 3 TEAEs (BID cohorts): 40.0% | subjects with TRAEs (BID cohorts): 86.7% | subjects with at least one TEAE (BID cohorts): 100.0% | Any treatment-related adverse event (TRAE) (Overall BID (N = 15)): 5 (33.3%) n (%) | TRAE: Decreased appetite (Overall BID (N = 15)): 2 (13.3%) n (%) | TRAE: Diarrhoea (Overall BID (N = 15)): 2 (13.3%) n (%) | TRAE: Dysgeusia (Overall BID (N = 15)): 1 (6.7%) n (%) | TRAE: Fatigue (Overall BID (N = 15)): 1 (6.7%) n (%) | TRAE: Gastrointestinal disorders (Overall BID (N = 15)): 5 (33.3%) n (%) | TRAE: General disorders and administration site conditions (Overall BID (N = 15)): 1 (6.7%) n (%) | TRAE: Metabolism and nutrition disorders (Overall BID (N = 15)): 2 (13.3%) n (%) | TRAE: Nausea (Overall BID (N = 15)): 4 (26.7%) n (%) | TRAE: Nervous system disorders (Overall BID (N = 15)): 1 (6.7%) n (%) | TRAE: Vomiting (Overall BID (N = 15)): 3 (20.0%) n (%) | Any treatment-related adverse event (TRAE) (Overall QD (N = 20)): 7 (35.0%) n (%) | TRAE: Decreased appetite (Overall QD (N = 20)): 2 (10.0%) n (%) | TRAE: Diarrhoea (Overall QD (N = 20)): 5 (25.0%) n (%) | TRAE: Dysgeusia (Overall QD (N = 20)): 1 (5.0%) n (%) | TRAE: Fatigue (Overall QD (N = 20)): 3 (15.0%) n (%) | TRAE: Gastrointestinal disorders (Overall QD (N = 20)): 6 (30.0%) n (%) | TRAE: General disorders and administration site conditions (Overall QD (N = 20)): 3 (15.0%) n (%) | TRAE: Metabolism and nutrition disorders (Overall QD (N = 20)): 2 (10.0%) n (%) | TRAE: Nausea (Overall QD (N = 20)): 4 (20.0%) n (%) | TRAE: Nervous system disorders (Overall QD (N = 20)): 1 (5.0%) n (%) | TRAE: Vomiting (Overall QD (N = 20)): 5 (25.0%) n (%) | Any treatment-related adverse event (TRAE) (Overall Study (N = 35)): 12 (34.3%) n (%) | TRAE: Decreased appetite (Overall Study (N = 35)): 4 (11.4%) n (%) | TRAE: Diarrhoea (Overall Study (N = 35)): 7 (20.0%) n (%) | TRAE: Dysgeusia (Overall Study (N = 35)): 2 (5.7%) n (%) | TRAE: Fatigue (Overall Study (N = 35)): 4 (11.4%) n (%) | TRAE: Gastrointestinal disorders (Overall Study (N = 35)): 11 (31.4%) n (%) | TRAE: General disorders and administration site conditions (Overall Study (N = 35)): 4 (11.4%) n (%) | TRAE: Metabolism and nutrition disorders (Overall Study (N = 35)): 4 (11.4%) n (%) | TRAE: Nausea (Overall Study (N = 35)): 8 (22.9%) n (%) | TRAE: Nervous system disorders (Overall Study (N = 35)): 2 (5.7%) n (%) | TRAE: Vomiting (Overall Study (N = 35)): 8 (22.9%) n (%) | Any treatment-emergent adverse event (TEAE) (Overall BID (N = 15)): 2 (13.3) n (%) | TEAE: Abdominal distension (Overall BID (N = 15)): 2 (13.3) n (%) | TEAE: Abdominal pain (Overall BID (N = 15)): 0 n (%) | TEAE: Back pain (Overall BID (N = 15)): 0 n (%) | TEAE: Blood and lymphatic system disorders (Overall BID (N = 15)): 1 (6.7) n (%) | TEAE: Chills (Overall BID (N = 15)): 4 (26.7) n (%) | TEAE: Constipation (Overall BID (N = 15)): 5 (33.3) n (%) | TEAE: Cough (Overall BID (N = 15)): 2 (13.3) n (%) | TEAE: Decreased appetite (Overall BID (N = 15)): 1 (6.7) n (%) | TEAE: Diarrhoea (Overall BID (N = 15)): 6 (40.0) n (%) | TEAE: Dizziness (Overall BID (N = 15)): 0 n (%) | TEAE: Dysgeusia (Overall BID (N = 15)): 0 n (%) | TEAE: Dyspnoea (Overall BID (N = 15)): 0 n (%) | TEAE: Fatigue (Overall BID (N = 15)): 4 (26.7) n (%) | TEAE: Gastrointestinal disorders (Overall BID (N = 15)): 7 (46.7) n (%) | TEAE: General disorders and administration site conditions (Overall BID (N = 15)): 5 (33.3) n (%) | TEAE: Haematuria (Overall BID (N = 15)): 3 (20.0) n (%) | TEAE: Headache (Overall BID (N = 15)): 3 (20.0) n (%) | TEAE: Infections and infestations (Overall BID (N = 15)): 1 (6.7) n (%) | TEAE: Investigations (Overall BID (N = 15)): 2 (13.3) n (%) | TEAE: Metabolism and nutrition disorders (Overall BID (N = 15)): 0 n (%) | TEAE: Musculoskeletal and connective tissue disorders (Overall BID (N = 15)): 2 (13.3) n (%) | TEAE: Nausea (Overall BID (N = 15)): 7 (46.7) n (%) | TEAE: Nervous system disorders (Overall BID (N = 15)): 3 (20.0) n (%) | TEAE: Oedema peripheral (Overall BID (N = 15)): 1 (6.7) n (%) | TEAE: Psychiatric disorders (Overall BID (N = 15)): 1 (6.7) n (%) | TEAE: Pyrexia (Overall BID (N = 15)): 2 (13.3) n (%) | TEAE: Renal and urinary disorders (Overall BID (N = 15)): 3 (20.0) n (%) | TEAE: Respiratory, thoracic, and mediastinal disorders (Overall BID (N = 15)): 2 (13.3) n (%) | TEAE: Skin and subcutaneous tissue disorders (Overall BID (N = 15)): 2 (13.3) n (%) | TEAE: Vomiting (Overall BID (N = 15)): 5 (33.3) n (%) | TEAE: Weight decreased (Overall BID (N = 15)): 2 (13.3) n (%) | Any treatment-emergent adverse event (TEAE) (Overall QD (N = 20)): 1 (5.0) n (%) | TEAE: Abdominal distension (Overall QD (N = 20)): 2 (10.0) n (%) | TEAE: Abdominal pain (Overall QD (N = 20)): 4 (20.0) n (%) | TEAE: Back pain (Overall QD (N = 20)): 1 (5.0) n (%) | TEAE: Blood and lymphatic system disorders (Overall QD (N = 20)): 0 n (%) | TEAE: Chills (Overall QD (N = 20)): 2 (10.0) n (%) | TEAE: Constipation (Overall QD (N = 20)): 5 (25.0) n (%) | TEAE: Cough (Overall QD (N = 20)): 4 (20.0) n (%) | TEAE: Decreased appetite (Overall QD (N = 20)): 6 (30.0) n (%) | TEAE: Diarrhoea (Overall QD (N = 20)): 8 (40.0) n (%) | TEAE: Dizziness (Overall QD (N = 20)): 4 (20.0) n (%) | TEAE: Dysgeusia (Overall QD (N = 20)): 1 (5.0) n (%) | TEAE: Dyspnoea (Overall QD (N = 20)): 2 (10.0) n (%) | TEAE: Fatigue (Overall QD (N = 20)): 6 (30.0) n (%) | TEAE: Gastrointestinal disorders (Overall QD (N = 20)): 8 (40.0) n (%) | TEAE: General disorders and administration site conditions (Overall QD (N = 20)): 7 (35.0) n (%) | TEAE: Haematuria (Overall QD (N = 20)): 1 (5.0) n (%) | TEAE: Headache (Overall QD (N = 20)): 2 (10.0) n (%) | TEAE: Infections and infestations (Overall QD (N = 20)): 0 n (%) | TEAE: Investigations (Overall QD (N = 20)): 5 (25.0) n (%) | TEAE: Metabolism and nutrition disorders (Overall QD (N = 20)): 5 (25.0) n (%) | TEAE: Musculoskeletal and connective tissue disorders (Overall QD (N = 20)): 5 (25.0) n (%) | TEAE: Nausea (Overall QD (N = 20)): 8 (40.0) n (%) | TEAE: Nervous system disorders (Overall QD (N = 20)): 8 (40.0) n (%) | TEAE: Oedema peripheral (Overall QD (N = 20)): 2 (10.0) n (%) | TEAE: Psychiatric disorders (Overall QD (N = 20)): 2 (10.0) n (%) | TEAE: Pyrexia (Overall QD (N = 20)): 2 (10.0) n (%) | TEAE: Renal and urinary disorders (Overall QD (N = 20)): 0 n (%) | TEAE: Respiratory, thoracic, and mediastinal disorders (Overall QD (N = 20)): 3 (15.0) n (%) | TEAE: Skin and subcutaneous tissue disorders (Overall QD (N = 20)): 4 (20.0) n (%) | TEAE: Vomiting (Overall QD (N = 20)): 8 (40.0) n (%) | TEAE: Weight decreased (Overall QD (N = 20)): 4 (20.0) n (%) | Any treatment-emergent adverse event (TEAE) (Overall Study (N = 35)): 3 (8.6) n (%)

Reference: PMC12736120, “First-in-Human Phase I Clinical Trial of SLC-391, a Novel and Selective AXL Inhibitor, in Patients with Advanced Solid Tumours” (Pharmaceuticals, 2025)
